The target in assay [1] is T1, Saccharophagus degradans 2-40^T β-glucosidase Bgl1B, recombinant (6 histidine residues at C-terminus), SEQ ID NO: 1 (nucleotide SEQ ID NO: 2) (Saccharophagus degradans, UniProt Q21KX3).
T1 sequence (Q21KX3 1-444): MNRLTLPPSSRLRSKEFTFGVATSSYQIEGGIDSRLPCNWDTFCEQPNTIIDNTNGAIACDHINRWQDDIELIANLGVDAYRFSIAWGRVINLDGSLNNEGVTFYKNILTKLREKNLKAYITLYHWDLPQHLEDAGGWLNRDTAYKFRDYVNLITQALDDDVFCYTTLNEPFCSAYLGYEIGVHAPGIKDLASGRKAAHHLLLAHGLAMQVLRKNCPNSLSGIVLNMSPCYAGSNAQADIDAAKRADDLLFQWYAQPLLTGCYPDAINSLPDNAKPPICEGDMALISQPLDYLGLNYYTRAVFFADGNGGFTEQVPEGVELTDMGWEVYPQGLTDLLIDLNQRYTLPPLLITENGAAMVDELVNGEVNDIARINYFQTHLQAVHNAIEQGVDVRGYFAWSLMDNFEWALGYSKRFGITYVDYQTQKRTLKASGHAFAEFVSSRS
The experiment in a line: Enzymatic reaction rate of Bgl1B for various substrates (Lineweaver-Burk plot). Type of assay: biochemical. To be noted: for Vmax / kcat: pH 6, 40° C., substrate 0.1-0.4% (w/v). The protocol: To obtain the genomic DNA of Saccharophagus degradans 2-40^T (ATCC43961), Saccharophagus degradans 2-40^T was cultured in a minimal medium containing 2.3 g of instant ocean sea salt, 20 mM Tris-HCl, 2 g of glucose, 1 g of yeast extract, and 0.5 g of ammonium chloride per 1 L at 30° C. for 12 hours. The genomic DNA was extracted using a commercial DNA isolation kit (Qiagen, Valencia, Calif., USA). The target gene bgl1B was amplified from the genomic DNA by PCR. […] To purify the protein by affinity chromatography, the nucleotide sequence of a gene encoding 6 histidine residues at the C-terminus was added. The PCR product and a pET21α vector were digested with NdeI and NotI, respectively, and ligated to construct a pET21α-Bgl1B plasmid. The plasmid was transformed into Escherichia coli DH5α.
To overexpress the obtained gene, the gene was transformed into a protein-expressing host, Escherichia coli B121 (DE3). The cells were cultured in a Luria-Bertani (LB) broth containing 50 mg/L of ampicillin at 37° C. until absorbance at 600 nm reached 0.6. To induce protein expression, 0.1 mM IPTG was added and the induction temperature was set at 16° C., and a protein was allowed to be overexpressed in a water-soluble form for 16 hours. After culture, centrifugation was performed to recover the cells, the cells were released using a 20 mM Tris-HCl buffer (pH 7.4), and then disrupted by ultrasonication and centrifuged again to obtain a supernatant. The recombinant protein was purified using a HisTrap column (GE Healthcare, Piscataway, USA). The purified protein was concentrated using an Amicon Ultra Centrifugal filter (30,000 molecular weight cut-off; Millipore, Billerica, Mass., USA), and the concentration of the protein was measured using a bicinchoninic acid (BCA) protein assay kit (Thermo Fisher Scientific, San Hose, Calif., USA).
(§1) To confirm the enzymatic reaction rate of the Bgl1B protein for various substrates, the Bgl1B protein was allowed to react with each substrate at various concentrations of 0.1-0.4% (w/v) at pH 6 and 40° C. Vmax, Km, and kcat, which are parameters related to an enzymatic reaction rate, were determined from the Lineweaver-Burk plot.

The subject of a further assay is Bgl1B protein. The experiment in a line: Effect of metal ions on the activity of the Bgl1B protein. Type of assay: biochemical, Saccharophagus degradans 2-40^T. To be noted: for Relative enzymatic activity (%) / influence on enzymatic activity: 10 mM metal ion, 0.1% (w/v) cellobiose; for Relative enzymatic activity (%): relative to no metal ion.
Another assay deals with Novozyme 188. In words: Enzymatic reaction rate of commercialized enzyme Novozyme 188 for substrates (comparison). Format: biochemical. As to conditions: pH 6, 40° C. (as for Bgl1B). As to the method: as §1

Entries after “also recorded” stand apart in the source; their conditions may differ.

Twelve molecules from patent US11248246B2, “Beta-glucosidase for producing glucose and laminarioligosaccharide from sea weed” (Korea University Research and Business Foundation, priority 2018, dated 2022) can be followed below.

The kcat is the maximal rate divided by the concentration of active sites. As usually defined, the Km is the concentration of substrate that gives half-maximal velocity.

`OC[C@H]1O[C@@H](OC[C@H]2OC(O)[C@H](O)[C@@H](O)[C@@H]2O)[C@H](O)[C@@H](O)[C@@H]1O` (stereo partly drawn) [Gentiobiose, gentiobiose]: in assay [1], the Vmax is listed as 1.1 × 10^0 U/mg protein and the kcat turned out to be 0.88 s⁻¹.

As to `[Mn+2]` [Mn^2+], the “Relative enzymatic activity (%)” value in the assay on Bgl1B protein worked out at 52.6 ± 2.1%. Moreover, the “inhibits enzymatic activity by” value in the assay on Bgl1B protein (metal ion, summary statement) is “about 50%”.

Turning to `[Ni+2]` [Ni^2+], in the assay on Bgl1B protein, the “influence on enzymatic activity” value is given as “does not have a great influence; also recorded: did not have a great influence” and the “Relative enzymatic activity (%)” value turned out to be 90.3 ± 2.7%.

For the molecule `[Mg+2]` [Mg^2+], in the assay on Bgl1B protein, the “influence on enzymatic activity” value is given as “does not have a great influence; also recorded: did not have a great influence” and the “Relative enzymatic activity (%)” value is listed as 98.9 ± 2.3%.

On to `[Fe+2]` [Fe^2+], for which the “Relative enzymatic activity (%)” value with Bgl1B protein is given as 8.2 ± 0.3%.

Consider `OC[C@H]1O[C@@H](O[C@H]2[C@H](O)[C@@H](CO)OC(O)[C@@H]2O)[C@H](O)[C@@H](O)[C@@H]1O` (stereo partly drawn) [Laminaribiose, laminaribiose], for which, in the assay on Novozyme 188, the Km is 2500 µM, the Vmax was 4.2 × 10^−1 U/mg protein and the kcat was 0.85 s⁻¹. In assay [1] (Bgl1B compared to Novozyme 188), the “Vmax, fold greater than Novozyme 188” value is 259 fold; the “catalytic efficiency, fold greater than Novozyme 188” value is 108 fold; the “kcat, fold greater than Novozyme 188” value is on record as 108 fold. For the same molecule, in assay [1], the Vmax was 1.1 × 10^2 U/mg protein and the kcat was 91 s⁻¹.

Regarding `[Co+2]` [Co^2+], in the assay on Bgl1B protein, the “influence on enzymatic activity” value is listed as “does not have a great influence; also recorded: did not have a great influence” and the “Relative enzymatic activity (%)” value was found to be 95.7 ± 1.6%.

With `[Ca+2]` [Ca^2+], in the assay on Bgl1B protein, the “Relative enzymatic activity (%)” value turned out to be 82.0 ± 1.5%.

As to `[Cu+2]` [Cu^2+], the “Relative enzymatic activity (%)” value with Bgl1B protein turned out to be 0.0 ± 0.0%.

In the case of `OC[C@H]1O[C@@H](O[C@H]2[C@H](O)[C@@H](O)C(O)O[C@@H]2CO)[C@H](O)[C@@H](O)[C@@H]1O` (stereo partly drawn) [Cellobiose, cellobiose], in the assay on Novozyme 188, the Km worked out at 3400 µM, the Vmax is 3.9 × 10^0 U/mg protein and the kcat is listed as 7.8 × 10^0 s^−1. For the same molecule, in assay [1], the Vmax is listed as 1.6 × 10^1 U/mg protein and the kcat was 13 s⁻¹.

As to `OC[C@H]1O[C@@H](O[C@H]2[C@H](O)[C@@H](O)C(O)O[C@@H]2CO)[C@H](O)[C@@H](O)[C@H]1O` (stereo partly drawn) [Lactose, lactose], in assay [1], the Vmax was 1.0 × 10^0 U/mg protein and the turnover number (kcat) came to 0.83 s⁻¹.

Regarding `OC[C@H]1O[C@@H](O[C@H]2[C@H]3OC[C@@H]2OC(O)[C@H]3O)[C@H](O)[C@@H](O)[C@H]1O` (stereo partly drawn) [Agarobiose, agarobiose], in assay [1], the Vmax is recorded as 3.1 × 10^−1 U/mg protein and the kcat was found to be 0.26 s⁻¹.
